{"source": "patent US11690854B2", "about": "“Methods of treating heavy menstrual bleeding” (priority 2018, dated 2023)", "key": {"[1]": {"tested_on": "monkeys", "experiment": "Repeat-dose study in monkeys", "assay_type": "in vivo", "conditions": "75, 150, 300 and 600 mg/kg/day, all doses", "text": "(§1) Based on pharmacologic actions of elagolix in humans a reversible effect on fertility may be expected in women."}, "[2]": {"biological_target": "T1, organic anion transporting polypeptide (OATP)1B1 (Homo sapiens, UniProt Q9Y6L6)", "T1 sequence (Q9Y6L6 1-691)": "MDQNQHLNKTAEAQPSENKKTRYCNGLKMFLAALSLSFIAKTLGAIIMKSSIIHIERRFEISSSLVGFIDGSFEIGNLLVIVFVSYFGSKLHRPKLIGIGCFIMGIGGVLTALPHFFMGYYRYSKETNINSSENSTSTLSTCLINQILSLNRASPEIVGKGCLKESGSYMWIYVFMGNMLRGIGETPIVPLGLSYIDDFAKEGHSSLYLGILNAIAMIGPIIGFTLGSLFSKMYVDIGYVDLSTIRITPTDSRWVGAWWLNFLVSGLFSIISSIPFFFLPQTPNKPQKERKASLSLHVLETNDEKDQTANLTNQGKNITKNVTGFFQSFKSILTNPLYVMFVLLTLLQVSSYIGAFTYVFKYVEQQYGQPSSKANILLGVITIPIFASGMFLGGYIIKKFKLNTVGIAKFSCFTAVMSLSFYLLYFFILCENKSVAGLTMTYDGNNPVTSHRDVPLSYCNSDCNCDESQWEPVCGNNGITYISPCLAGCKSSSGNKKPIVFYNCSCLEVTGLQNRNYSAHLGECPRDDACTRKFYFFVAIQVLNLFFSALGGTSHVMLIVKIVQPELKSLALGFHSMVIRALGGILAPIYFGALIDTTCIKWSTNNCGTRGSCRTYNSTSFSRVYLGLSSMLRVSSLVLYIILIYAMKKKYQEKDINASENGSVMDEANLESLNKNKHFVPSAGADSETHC", "experiment": "Drug interaction potential: OATP1B1", "experimental": "(§2) Elagolix is a substrate of CYP3A, P-gp, and organic anion transporting polypeptide (OATP)1B1. Clinically meaningful interactions are not expected when ELAGOLIX is co-administered with drugs that inhibit CYP3A or P-gp.\nCo-administration of ELAGOLIX with drugs that inhibit OATP1B1 may increase elagolix plasma concentrations. Use of potent OATP1B1 inhibitors are not recommended with ELAGOLIX 200 mg BID regimen."}, "[3]": {"tested_on": "cytochrome P450 (CYP) 3A enzyme", "experiment": "Drug interaction potential: CYP3A", "text": "Co-administration with ELAGOLIX may decrease plasma concentration of drugs that are substrates of CYP3A.\nas §2"}, "[4]": {"tested_on": "rats", "experiment": "Lactation study in rats (secretion in milk)", "assay_type": "in vivo", "experimental": "Pregnant rats were given diet containing elagolix throughout the gestation and lactation periods to achieve a daily elagolix dose of 400 mg/kg. During nursing the dams and litters were divided into restricted feeding and non-restricted groups to determine whether elagolix was secreted in the mother's milk. […] In pups of the non-restricted feeding group, elagolix plasma concentrations were measurable and approximately 1% of the mother's plasma concentrations."}, "[5]": {"experiment": "Mutagenicity studies using in vitro and in vivo test systems", "text": "Mutagenicity studies have been performed with elagolix using in vitro and in vivo test systems."}, "[6]": {"tested_on": "QTc interval", "experiment": "Thorough QT study", "assay_type": "in vivo", "conditions": "up to 1200 mg; 17- to 23-fold of therapeutic concentrations; active control moxifloxacin 400 mg", "experimental": "The effect of elagolix (up to 1200 mg) on QTc interval was evaluated in an active-controlled (moxifloxacin 400 mg) thorough QT study."}, "[7]": {"tested_on": "women with endometriosis", "experiment": "Six Phase 2 studies of elagolix for endometriosis associated pain", "assay_type": "in vivo, human", "experimental": "Efficacy was assessed for dysmenorrhea (DYS), nonmenstrual pelvic pain (NMPP), dyspareunia, and general pelvic pain with a range of instruments. Additional efficacy assessments included quality of life and the use of analgesics for control of endometriosis pain. Across these Phase 2 studies, the enrollment criteria were similar and were intended to select premenopausal women aged 18 to 49 years of age with endometriosis confirmed by visual inspection (laparoscopy or laparotomy within 5 to 8 years of screening) who experienced moderate to severe endometriosis-associated pain. Women were included if they had regular menstrual cycles and no significant uterine fibroids or pelvic lesions. Total daily doses of elagolix ranging from 75 to 250 mg were evaluated across a range of pain instruments measuring […], or general pelvic pain (including patient global impression of change), during 12 or 24 weeks of treatment. […] Overall, 475 women have received elagolix for at least 12 weeks and 278 women for a period of at least 24 weeks. The majority of women were Caucasian (78.9% to 100%), while approximately 7% were black and approximately 4.5% were Hispanic. The mean age across these six Phase 2 studies was 31 to 33 years (range 18 to 48 years) and mean body mass index (BMI) of 23 to 28 kg/m. […] In addition, the majority were receiving analgesic medications (nonsteroidal anti-inflammatory drugs, opioids, and/or other) prior to study enrollment"}, "[8]": {"biological_target": "efflux transporter P-glycoprotein (P-gp) (Homo sapiens, UniProt P08183)", "sequence (P08183 whole entry)": "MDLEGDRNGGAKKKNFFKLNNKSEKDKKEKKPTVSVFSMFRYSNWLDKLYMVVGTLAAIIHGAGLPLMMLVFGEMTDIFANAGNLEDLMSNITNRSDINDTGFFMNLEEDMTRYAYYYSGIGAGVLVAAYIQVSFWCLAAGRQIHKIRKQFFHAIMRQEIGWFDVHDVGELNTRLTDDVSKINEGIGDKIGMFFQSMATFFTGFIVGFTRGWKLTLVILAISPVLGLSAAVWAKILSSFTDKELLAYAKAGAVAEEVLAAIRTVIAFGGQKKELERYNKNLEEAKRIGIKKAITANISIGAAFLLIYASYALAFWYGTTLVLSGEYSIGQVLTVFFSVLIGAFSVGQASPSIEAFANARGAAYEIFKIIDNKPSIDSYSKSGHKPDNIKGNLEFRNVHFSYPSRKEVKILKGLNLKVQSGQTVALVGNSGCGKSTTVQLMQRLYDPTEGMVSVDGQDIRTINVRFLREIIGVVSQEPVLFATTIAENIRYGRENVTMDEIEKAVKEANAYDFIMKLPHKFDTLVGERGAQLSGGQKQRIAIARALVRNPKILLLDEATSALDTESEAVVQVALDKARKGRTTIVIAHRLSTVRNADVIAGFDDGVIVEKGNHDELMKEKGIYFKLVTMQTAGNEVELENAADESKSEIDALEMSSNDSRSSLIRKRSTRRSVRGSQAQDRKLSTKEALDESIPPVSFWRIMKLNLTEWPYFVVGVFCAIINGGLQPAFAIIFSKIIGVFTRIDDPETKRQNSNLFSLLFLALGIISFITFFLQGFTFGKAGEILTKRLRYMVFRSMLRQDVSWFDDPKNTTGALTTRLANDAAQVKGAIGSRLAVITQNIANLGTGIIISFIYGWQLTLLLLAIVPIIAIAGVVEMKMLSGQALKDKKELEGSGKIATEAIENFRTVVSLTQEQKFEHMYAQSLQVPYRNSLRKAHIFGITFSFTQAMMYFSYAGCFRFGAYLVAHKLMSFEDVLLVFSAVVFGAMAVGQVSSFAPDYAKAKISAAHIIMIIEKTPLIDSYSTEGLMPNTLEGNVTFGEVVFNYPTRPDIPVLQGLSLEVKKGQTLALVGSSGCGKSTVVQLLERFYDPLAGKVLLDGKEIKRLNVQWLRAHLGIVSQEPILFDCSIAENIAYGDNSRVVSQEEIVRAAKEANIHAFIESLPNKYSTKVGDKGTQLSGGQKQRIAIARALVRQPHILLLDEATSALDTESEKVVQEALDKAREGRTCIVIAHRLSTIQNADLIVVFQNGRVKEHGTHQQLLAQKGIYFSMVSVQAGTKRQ", "experiment": "Drug interaction potential: P-gp", "experimental": "Elagolix is an inhibitor of efflux transporter P-glycoprotein (P-gp) at 200 mg BID or higher, such as 300 mg BID or 400 mg QD or 600 mg QD. Co-administration with ELAGOLIX 200 mg BID may increase plasma concentration of drugs that are substrates of P-gp.\nas §2"}, "[9]": {"tested_on": "rats", "experiment": "Fertility study and repeat-dose study in rats", "assay_type": "in vivo", "text": "as §1"}}}
{"smiles": "COc1cccc(-c2c(C)n(Cc3c(F)cccc3C(F)(F)F)c(=O)n(C[C@H](NCCCC(=O)O)c3ccccc3)c2=O)c1F", "note": "[Elagolix, 4-((R)-2-[5-(2-fluoro-3-methoxy-phenyl)-3-(2-fluoro-6-trifluoromethyl-benzyl)-4-methyl-2,6-dioxo-3,6-dihydro-2H-pyrimidin-1-yl]-1-phenyl-ethylamino)-butyric acid]", "values": [{"measurement": "Reproductive organ findings in repeat-dose study", "setting": "[1]", "value": "reversible atrophy of reproductive organs (cervix, uterus and vagina)"}, {"measurement": "Substrate of OATP1B1", "setting": "[2]", "value": "substrate"}, {"measurement": "Induction of CYP3A", "setting": "[3]", "value": "weak to moderate inducer"}, {"measurement": "Substrate of CYP3A", "setting": "[3]", "value": "substrate"}, {"measurement": "Elagolix plasma concentrations in pups relative to the mother's plasma concentrations", "setting": "[4]; non-restricted feeding group, dams 400 mg/kg daily in diet", "value": "approximately 1%"}, {"measurement": "Secretion in milk", "setting": "[4]; rats, pup plasma as surrogate of exposure via lactation", "value": "minimally secreted in milk"}, {"measurement": "Elagolix plasma concentrations in pups", "setting": "[4]; restricted feeding litters, post natal day 10 and 20, dams 400 mg/kg daily in diet", "value": "not measurable"}, {"measurement": "Mutagenic or clastogenic potential", "setting": "[5]", "value": "no evidence of a mutagenic or clastogenic potential"}, {"measurement": "Effect on QTc interval", "setting": "[6]", "value": "does not prolong the QTc interval"}, {"measurement": "Safety and tolerability", "setting": "[7]; all daily doses (100 to 250 mg)", "value": "safe and well tolerated"}, {"measurement": "Incidence of AEs that led to discontinuations", "setting": "[7]; completed Phase 2 studies", "value": 4.8, "unit": "%"}, {"measurement": "Effect on DYS and NMPP versus DMPA-SC", "setting": "[7]; daily dose of 150 mg", "value": "comparable effect to subcutaneous depot medroxyprogesterone acetate (DMPA-SC)"}, {"measurement": "Effect versus leuprorelin", "setting": "[7]; daily doses of 150 mg and 250 mg", "value": "less effect compared with leuprorelin"}, {"measurement": "Reduction in endometriosis-associated pain", "setting": "[7]; daily doses of 100 to 250 mg, 12 or 24 weeks", "value": "clinically meaningful reductions in endometriosis-associated pain"}, {"measurement": "Days of bleeding per month (eDiary)", "setting": "[7]; versus placebo", "value": "fewer days of bleeding per month compared with patients who received placebo"}, {"measurement": "Substrate of P-gp", "setting": "[8]", "value": "substrate"}, {"measurement": "Inhibition of P-gp", "setting": "[8]; at 200 mg BID or higher, such as 300 mg BID or 400 mg QD or 600 mg QD", "value": "inhibitor"}, {"measurement": "Effect in fertility study", "setting": "[9]; doses 50, 150, 300 mg/kg/day", "value": "no effect"}, {"measurement": "Ovarian findings in repeat-dose study", "setting": "[9]; doses 600, 800 mg/kg/day", "value": "involution and a decrease in corpora lutea in ovaries"}]}
